# Structures can show the parent of a compound that is named as a salt.
# Target: T1, NLRP3 (Homo sapiens, UniProt Q96P20)
# Assay: Human whole blood IL1β release assay (LPS + nigericin, AlphaLisa IL-1β)
# Format: cell-based
# Design: Human whole blood in Li-heparin tubes was obtained from healthy donors from a volunteer donor panel; from tissue; host or cells: human whole blood from healthy donors
# Details: NLRP3 inhibitory activity, 1 μg/ml LPS, 10 μM nigericin, IL-1β release, read-out: HWB IC50
# Method: For systemic delivery, the ability to inhibit NLRP3 when the compounds are present within the bloodstream is of great importance. For this reason, the NLRP3 inhibitory activity of a number of compounds in human whole blood was investigated in accordance with the following protocol.
# Human whole blood in Li-heparin tubes was obtained from healthy donors from a volunteer donor panel. • 1. Plate out 80 μl of whole blood containing 1 μg/ml of LPS in 96-well, clear bottom cell culture plate (Corning #3585) • 2. Add 10 μl compound (8 points half-log dilution with 10 μM top dose) or vehicle (DMSO 0.1% FAC) to the appropriate wells • 3. Incubate for 3 hrs at 37° C., 5% CO2 • 4. Add 10 μl Nigericin (Sigma #N7143) (10 μM FAC) to all wells • 5. Incubate for 1 hr at 37° C., 5% CO2 • 6. At the end of the incubation period, spin plates at 300×g for 5 mins to pellet cells and remove 20 μl of supernatant and add to 96-well v-bottom plates for IL-1β analysis (note: these plates containing the supernatants can be stored at −80° C. to be analysed at a later date) • 7. IL-1β was measured according to the manufacturer protocol (Perkin Elmer-AlphaLisa IL-1β Kit AL220F-5000) • 8. IC50 data is fitted to a non-linear regression equation (log inhibitor vs response-variable slope 4-parameters)
# T1 sequence (Q96P20 whole entry): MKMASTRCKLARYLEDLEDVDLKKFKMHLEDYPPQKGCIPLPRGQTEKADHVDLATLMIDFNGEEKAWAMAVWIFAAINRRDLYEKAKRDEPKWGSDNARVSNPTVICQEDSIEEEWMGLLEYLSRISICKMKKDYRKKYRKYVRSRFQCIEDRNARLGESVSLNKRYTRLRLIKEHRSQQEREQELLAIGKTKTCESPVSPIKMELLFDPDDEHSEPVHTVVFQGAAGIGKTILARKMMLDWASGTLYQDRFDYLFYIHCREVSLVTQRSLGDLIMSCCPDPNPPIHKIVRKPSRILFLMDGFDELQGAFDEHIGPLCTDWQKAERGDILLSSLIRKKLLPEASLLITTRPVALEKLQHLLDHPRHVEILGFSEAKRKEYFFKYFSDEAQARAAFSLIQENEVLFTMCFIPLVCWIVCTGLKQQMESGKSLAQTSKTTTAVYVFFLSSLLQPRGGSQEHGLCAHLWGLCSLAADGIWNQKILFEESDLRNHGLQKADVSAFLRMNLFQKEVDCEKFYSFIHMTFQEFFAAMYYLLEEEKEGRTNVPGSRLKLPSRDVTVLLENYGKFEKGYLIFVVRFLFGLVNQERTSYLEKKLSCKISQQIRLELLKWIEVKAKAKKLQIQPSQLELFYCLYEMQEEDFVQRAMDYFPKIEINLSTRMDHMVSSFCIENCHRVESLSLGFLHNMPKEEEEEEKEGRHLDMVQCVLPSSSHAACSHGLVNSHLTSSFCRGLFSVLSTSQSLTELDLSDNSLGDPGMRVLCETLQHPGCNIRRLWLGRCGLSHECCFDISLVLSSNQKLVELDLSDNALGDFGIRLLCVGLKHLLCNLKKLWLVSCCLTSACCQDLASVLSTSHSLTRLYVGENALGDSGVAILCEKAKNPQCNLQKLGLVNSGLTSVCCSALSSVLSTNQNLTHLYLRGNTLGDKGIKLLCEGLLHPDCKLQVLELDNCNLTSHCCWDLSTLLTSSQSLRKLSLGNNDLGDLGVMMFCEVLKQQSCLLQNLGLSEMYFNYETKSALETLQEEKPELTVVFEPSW
row,IC50 [nM],Structure (SMILES)
1,400 to 800,"Cn1nc(S(=O)(=O)NC(=O)Nc2c3c(cc4c2CCC4)CCC3)cc1CN1CCCC1 [Example 78, N-((1,2,3,5,6,7-Hexahydro-s-indacen-4-yl)carbamoyl)-1-methyl-5-(pyrrolidin-1-ylmethyl)-1H-pyrazole-3-sulfonamide, Sodium Salt]"
2,< 400,"CC(c1cc(S(=O)(=O)NC(=O)Nc2c3c(cc4c2CCC4)CCC3)nn1C)N(C)C (single isomer, unassigned; enantiomer 2) [Example 70, 5-(1-(Dimethylamino)ethyl)-N-((1,2,3,5,6,7-hexahydro-s-indacen-4-yl)carbamoyl)-1-methyl-1H-pyrazole-3-sulfonamide, Enantiomer 2]"
3,< 400,"CC(C)c1cc(F)cc(-c2ccnc(C#N)c2)c1NC(=O)NS(=O)(=O)c1cc(CN(C)C)n(C)n1 [Example 36, N-((2-(2-Cyanopyridin-4-yl)-4-fluoro-6-isopropylphenyl)carbamoyl)-5-((dimethylamino)methyl)-1-methyl-1H-pyrazole-3-sulfonamide]"
4,400 to 800,CCn1nc(S(=O)(=O)NC(=O)Nc2c3c(cc4c2CCO4)CCC3)cc1CN(C)C [Example 184]

# Target: T1, NLRP3
# Assay: THP-1 cells pyroptosis assay (LPS + nigericin, resazurin readout)
# Format: cell-based
# Design: Seed THP-1 cells (25,000 cells/well) containing 1.0 μg/ml LPS in 40 μl of RPMI medium; host or cells: THP-1 cells
# Details: NLRP3 inhibitory activity, 1.0 μg/ml LPS, 5 μM nigericin
# Method: THP-1 cells (ATCC #TIB-202) were grown in RPMI containing L-glutamine (Gibco #11835) supplemented with 1 mM sodium pyruvate (Sigma #S8636) and penicillin (100 units/ml)/streptomycin (0.1 mg/ml) (Sigma #P4333) in 10% Fetal Bovine Serum (FBS) (Sigma #F0804). The cells were routinely passaged and grown to confluency (˜10^6 cells/ml). On the day of the experiment, THP-1 cells were harvested and resuspended into RPMI medium (without FBS). The cells were then counted and viability (>90%) checked by Trypan blue (Sigma #T8154). Appropriate dilutions were made to give a concentration of 625,000 cells/ml. To this diluted cell solution was added LPS (Sigma #L4524) to give a […] Final Assay Concentration (FAC). 40 μl of the final preparation was aliquoted into each well of a 96-well plate. The plate thus prepared was used for compound screening.
# The following method step-by-step assay was followed for compound screening. • 1. Seed THP-1 cells (25,000 cells/well) containing 1.0 μg/ml LPS in 40 μl of RPMI medium (without FBS) in 96-well, black walled, clear bottom cell culture plates coated with poly-D-lysine (VWR #734-0317) • 2. Add 5 μl compound (8 points half-log dilution, with 10 μM top dose) or vehicle (DMSO 0.1% FAC) to the appropriate wells • 3. Incubate for 3 hrs at 37° C. in 5% CO2 • 4. Add 5 μl nigericin (Sigma #N7143) (FAC 5 μM) to all wells • 5. Incubate for 1 hr at 37° C. and 5% CO2 • 6. At the end of the incubation period, spin plates at 300×g for 3 mins and remove supernatant • 7. Then add 50 μl of resazurin (Sigma #R7017) (FAC 100 μM resazurin in RPMI medium without FBS) and incubate plates for a further 1-2 hrs at 37° C. and 5% CO2 • 8. Plates were read in an Envision reader at Ex 560 nm and Em 590 nm • 9. IC50 data is fitted to a non-linear regression equation (log inhibitor vs response-variable slope 4-parameters)
row,IC50 [nM],Structure (SMILES)
1,640 to 2560,"CCn1nc(S(=O)(=O)NC(=O)Nc2c(Br)ccc3c2CCC3)cc1CN(C)C [Example 16, N-((5-Bromo-2,3-dihydro-1H-inden-4-yl)carbamoyl)-5-((dimethylamino)methyl)-1-ethyl-1H-pyrazole-3-sulfonamide]"
2,640 to 2560,"CC(C)c1cc(Cl)cc(C(C)C)c1NC(=O)NS(=O)(=O)c1cc(CN2CCOCC2)n(C)n1 [Example 120, N-((4-Chloro-2,6-diisopropylphenyl)carbamoyl)-1-methyl-5-(morpholinomethyl)-1H-pyrazole-3-sulfonamide, Sodium Salt]"
3,40 to 160,"Cn1nc(S(=O)(=O)NC(=O)Nc2c3c(cc4c2CCC4)CCC3)cc1CN1CCCC1 [Example 78, N-((1,2,3,5,6,7-Hexahydro-s-indacen-4-yl)carbamoyl)-1-methyl-5-(pyrrolidin-1-ylmethyl)-1H-pyrazole-3-sulfonamide, Sodium Salt]"
4,< 40,"CC(c1cc(S(=O)(=O)NC(=O)Nc2c3c(cc4c2CCC4)CCC3)nn1C)N(C)C (single isomer, unassigned; enantiomer 2) [Example 70, 5-(1-(Dimethylamino)ethyl)-N-((1,2,3,5,6,7-hexahydro-s-indacen-4-yl)carbamoyl)-1-methyl-1H-pyrazole-3-sulfonamide, Enantiomer 2]"
5,40 to 160,"CC(C)c1cc(F)cc(-c2ccnc(C#N)c2)c1NC(=O)NS(=O)(=O)c1cc(CN(C)C)n(C)n1 [Example 36, N-((2-(2-Cyanopyridin-4-yl)-4-fluoro-6-isopropylphenyl)carbamoyl)-5-((dimethylamino)methyl)-1-methyl-1H-pyrazole-3-sulfonamide]"
6,< 40,CCn1nc(S(=O)(=O)NC(=O)Nc2c3c(cc4c2CCO4)CCC3)cc1CN(C)C [Example 184]
7,160 to 640,"CN(Cc1cc(S(=O)(=O)NC(=O)Nc2c3c(cc4c2CCC4)CCC3)nn1C)C1CC1 [Example 85, 5-((Cyclopropyl(methyl)amino)methyl)-N-((1,2,3,5,6,7-hexahydro-s-indacen-4-yl)carbamoyl)-1-methyl-1H-pyrazole-3-sulfonamide, Sodium Salt]"
8,2560 to 10000,"CN(C)Cc1nc(S(=O)(=O)NC(=O)Nc2c3c(cc4c2CCC4)CCC3)cn1C [Example 167, 2-((Dimethylamino)methyl)-N-((1,2,3,5,6,7-hexahydro-s-indacen-4-yl)carbamoyl)-1-methyl-1H-imidazole-4-sulfonamide]"
9,160 to 640,"CC(C)c1cc(F)cc(C(C)C)c1NC(=O)NS(=O)(=O)c1cc(CN(C)C)n(C(C)C)n1 [Example 61, 5-((Dimethylamino)methyl)-N-((4-fluoro-2,6-diisopropylphenyl)carbamoyl)-1-isopropyl-1H-pyrazole-3-sulfonamide]"
10,640 to 2560,"CC(C)c1cc(F)cc(-c2cncnc2)c1NC(=O)NS(=O)(=O)c1cc(CN(C)C)n(C(C)C)n1 [Example 42, 5-((Dimethylamino)methyl)-N-((4-fluoro-2-isopropyl-6-(pyrimidin-5-yl)phenyl)carbamoyl)-1-isopropyl-1H-pyrazole-3-sulfonamide]"
11,640 to 2560,"CC(c1cc(S(=O)(=O)[N-]C(=O)Nc2c3c(cc4c2CCC4)CCC3)nn1C)[N+](C)(C)C (stereo not drawn) [Example 19, ((1,2,3,5,6,7-Hexahydro-s-indacen-4-yl)carbamoyl)((1-methyl-5-(1-(trimethylammonio)ethyl)-1H-pyrazol-3-yl)sulfonyl)amide]"
12,640 to 2560,"CC(C)c1cc(F)cc(-c2cncnc2)c1NC(=O)NS(=O)(=O)c1cc(CN(C)C)n(C)n1 [Example 43, 5-((Dimethylamino)methyl)-N-((4-fluoro-2-isopropyl-6-(pyrimidin-5-yl)phenyl)carbamoyl)-1-methyl-1H-pyrazole-3-sulfonamide]"
13,640 to 2560,"CC(C)c1cc(F)cc(-c2ccnc(C(N)=O)c2)c1NC(=O)NS(=O)(=O)c1cc(CN(C)C)n(C)n1 [Example 28, 4-(2-(3-((5-((Dimethylamino)methyl)-1-methyl-1H-pyrazol-3-yl)sulfonyl)ureido)-5-fluoro-3-isopropylphenyl)picolinamide]"
14,160 to 640,"CN1CC(N(C)Cc2cc(S(=O)(=O)NC(=O)Nc3c4c(cc5c3CCC5)CCC4)nn2C)C1 [Example 8, N-((1,2,3,5,6,7-Hexahydro-s-indacen-4-yl)carbamoyl)-1-methyl-5-((methyl(1-methylazetidin-3-yl)amino)methyl)-1H-pyrazole-3-sulfonamide, Sodium Salt]"
15,640 to 2560,CCn1nc(S(=O)(=O)NC(=O)Nc2c(-c3cccc(OC)c3)ccc3c2CCC3)cc1CN(C)C [Example 182]
16,640 to 2560,"COCCN(C)Cc1cc(S(=O)(=O)NC(=O)Nc2c(C(C)C)cc(F)cc2C(C)C)nn1C [Example 118, N-((4-Fluoro-2,6-diisopropylphenyl)carbamoyl)-5-(((2-methoxyethyl)(methyl)amino)methyl)-1-methyl-1H-pyrazole-3-sulfonamide, Sodium Salt]"
17,640 to 2560,"CC(C)c1cc(F)cc(C(C)C)c1NC(=O)NS(=O)(=O)c1cc(CN(C)C2CC2)n(C)n1 [Example 87, 5-((Cyclopropyl(methyl)amino)methyl)-N-((4-fluoro-2,6-diisopropylphenyl)carbamoyl)-1-methyl-1H-pyrazole-3-sulfonamide, sodium Salt]"
18,2560 to 10000,"CNCCn1nc(S(=O)(=O)NC(=O)Nc2c3c(cc4c2CCC4)CCC3)cc1C(=O)O [Example 2, 3-(N-((1,2,3,5,6,7-Hexahydro-s-indacen-4-yl)carbamoyl)sulfamoyl)-1-(2-(methylamino)ethyl)-1H-pyrazole-5-carboxylic Acid]"
19,160 to 640,"CN(Cc1cc(S(=O)(=O)NC(=O)Nc2c3c(cc4c2CCC4)CCC3)nn1C)CC(F)(F)F [Example 97, N-((1,2,3,5,6,7-Hexahydro-s-indacen-4-yl)carbamoyl)-1-methyl-5-((methyl(2,2,2-trifluoroethyl)amino)methyl)-1H-pyrazole-3-sulfonamide, Sodium Salt]"
20,2560 to 10000,"CC(C)c1cc(F)cc(C(C)C)c1NC(=O)NS(=O)(=O)c1cc(CN(C)C2CN(C)C2)n(C)n1 [Example 9, N-((4-Fluoro-2,6-diisopropylphenyl)carbamoyl)-1-methyl-5-((methyl(1-methylazetidin-3-yl)amino)methyl)-1H-pyrazole-3-sulfonamide, Sodium Salt]"
21,640 to 2560,"CC(C)n1nc(S(=O)(=O)[N-]C(=O)Nc2c3c(cc4c2CCC4)CCC3)cc1C(C)[N+](C)(C)C (stereo not drawn) [Example 18, ((1,2,3,5,6,7-Hexahydro-s-indacen-4-yl)carbamoyl)((1-isopropyl-5-(1-(trimethylammonio)ethyl)-1H-pyrazol-3-yl)sulfonyl)amide]"
22,640 to 2560,"Cn1nc(S(=O)(=O)NC(=O)Nc2c3c(cc4c2CCC4)CCC3)cc1CN1CCOCC1 [Example 121, N-((1,2,3,5,6,7-Hexahydro-s-indacen-4-yl)carbamoyl)-1-methyl-5-(morpholinomethyl)-1H-pyrazole-3-sulfonamide]"

row,Structure (SMILES),IC50 [nM]
1,"CC(C)c1cc(Cl)cc(C(C)C)c1NC(=O)NS(=O)(=O)c1cc(C(=O)N(C)CC#N)n(C)n1 [Example 130, 3-(N-((4-Chloro-2,6-diisopropylphenyl)carbamoyl)sulfamoyl)-N-(cyanomethyl)-N,1-dimethyl-1H-pyrazole-5-carboxamide]",640 to 2560
